US20190255146A1, “POLYPEPTIDES FOR IMPROVED RESPONSE TO ANTI-CANCER THERAPY” (MUSC FOUNDATION FOR RESEARCH DEVELOPMENT, priority 2016, published 2019)

How the values were obtained:
[1] = system: UM-SCC-47-derived xenograft tumors; experiment: HPV(+) UM-SCC-47-derived xenograft tumor growth in SCID mice; format: in vivo; details: HPV(+) UM-SCC-47 xenografts, cisplatin 3.5 mg/kg for two weeks, tumor volumes days 0 and 14
Procedure: (§1) To determine whether HPV(+) compared to HPV(−) HNSCC cells are more sensitive to stress-mediated growth inhibition in response to chemotherapeutic drugs, it was first established HPV(+) UM-SCC-47- and HPV(−) UM-SCC-22A-derived xenograft tumors in SCID mice. After the xenograft-derived tumors were ˜75-100 mm^3, the mice were treated with cisplatin (3.5 mg/kg) for two weeks, which is below its maximum tolerated doses (van Moorsel et al, 1999). Then, tumor volumes were measured at days 0 and 14 of treatment. […] After tumor growth measurements in the mice were taken, the tumors were surgically removed and the effects of cisplatin on CerS1-6 mRNA were measured by qRT-PCR.
(§2) In vivo studies. […] Age- and sex-matched mice were used. […] Tumor volume was measured using calipers.

[2] = system: UM-SCC-22A-derived xenograft tumors; experiment: HPV(−) UM-SCC-22A-derived xenograft tumor growth in SCID mice; format: in vivo
Procedure: as §1
Eight arginine residues (R8) were included on the N-terminus to enhance cell penetration of the E2F5 peptide (Rancher and Ryu, 2015).
In vivo studies. Severe combined immunodeficient (SCID) mice were purchased from Jackson Laboratories. Age- and sex-matched mice were used. All animal protocols were approved by the Institutional Animal Care and Use Committee at the Medical University of South Carolina. UM-SCC22A or UM-SCC47 cells (75,000) were implanted into the flanks of SCID mice (n=5-8 mice). When the tumors were palpable, the mice were treated every three days with 3.5 mg/kg cisplatin, 20 mg/kg C18-pyr-cer, or corresponding amount of vehicle control and/or 3.76 μg E2F5-peptide or scrambled control peptide. Tumor volume was measured using calipers. At the end of the 14-day treatment, the mice were euthanized and tumor tissues were collected (Sentelle et al, 2007; Saddoughi et al, 2013).

UM-SCC-22A cells = experiment: Growth inhibition in culture, IC50 determination by MTT assay; format: cell-based; details: UM-SCC-22A (HPV−) cells, 48 h; read-out: IC50 (concentration that inhibited growth by 50%)
Procedure: (§3) IC50 determination by MTT assay. Cells were plated in 96-well plates and allowed to adhere for 20 h, then treated with the indicated concentrations of drug. After 48 h treatment, the MTT assay (ATCC) was performed as described previously (Sentelle et al, 2012).

UM-SCC-47 cells = experiment: as above; format: cell-based
Procedure: as §3

CerS1-6 mRNA = CerS1-6 mRNA by qRT-PCR in HPV(+) UM-SCC-47 xenograft-derived tumors; format: in vivo, mice; details: day 14 versus day 0
Procedure: as §1
Quantitative RT-PCR. RNA was extracted from cell pellets using RNeasy kit (Qiagen) per the manufacturer's instructions. cDNA was generated using equal amounts of RNA from each sample and iScript cDNA synthesis kit (Bio-Rad) per manufacturer's instructions. Reactions were carried out using SsoFast probes mix (Bio-Rad) and TaqMan primer probes (ThermoFisher Scientific) in a StepOne Plus qPCR cycler as described by the manufacturer.
as §2

Drp1 [3] = experiment: Drp1 oligomerization by Western blotting without reducing agents; format: cell-based; details: HPV(+) UM-SCC47 cells
Procedure: FIGS. 7A-F. E2F5/Drp1 complex enhances HPV-E7/ceramide-dependent lethal mitophagy. (A) UM-SCC47 cells were treated with cisplatin or C18-pyr-cer and Western blotting was performed with cell lysates in the absence of reducing agents in the lysing buffer to detect monomeric and dimeric Drp1 protein abundance compared to vehicle-treated controls. Actin was used as a loading control. (B-C) Cell death was assessed by trypan blue exclusion assay in UM-SCC47 cells expressing dominant-negative Drp1 mutant (K38A-DRP1) and treated with C18-pyr-cer (B) or cisplatin (C) compared to vector-transfected controls. […] (D-E) Association between E2F5 and Drp1 in response to ceramide stress (C18-pyr-cer) was measured in UM-SCC-47 cells using PLA (D) or immunoprecipitation followed by Western blotting (E) with anti-Drp1 or anti-E2F5 antibodies. IgG was used as a control. […] PLA signals were quantified as described by the manufacturer using the PLA quantification software. […] Effects of siRNA-mediated HPV-E6/E7 knockdown on pRB, HPV-E7 and p53 protein abundance were also confirmed by Western blotting compared to Scr-siRNA-transfected controls in the absence/presence of C18-pyr-cer (right panel). Total RB was used a loading control (Rb band, upper panel).
Immunoblotting. Cells were lysed in RIPA buffer plus protease inhibitor cocktail on ice for 15 minutes then centrifuged. […]

CerS1 = CerS1 localization, Western blotting of cytoplasm versus mitochondria enriched fractions of UM-SCC-47 cells; format: cell-based; details: cisplatin 1 and 4 h versus 0 h
Procedure: FIGS. 2A-G. HPV-E6 enhances chemotherapy-mediated cellular stress and CerS1/ceramide-mediated lethal mitophagy. (A-B) Effects of siRNA-mediated knockdown of HPV-E6/E7 on HPV(+) UM-SCC-47 cell death was assessed by MTT compared to Scr-siRNA-transfected and/or vehicle-treated controls. Successful knockdown of HPV-E6/E7 proteins were confirmed by Western blot analysis (B). […] (C) Effects of ectopic expression of HPV-E6 versus E7 on HPV(−) UM-SCC-22A cell death were measured by MTT. HPV-E6/E7 protein abundance was measured by Western blotting. […] (D) Effects of shRNA-mediated knockdown of CerS1 on mitophagy in response to cisplatin were measured by live cell imaging confocal micrographs of UM-SCC-47 cells stained with LTG and MTR. Scr-shRNA-transfected and/or vehicle-treated cells were used as controls. […] Images were quantified using ImageJ. (E) Cytoplasmic versus mitochondrial localization of CerS1 in the presence/absence of cisplatin at 0, 1, and 4 h was measured by Western blotting using anti-CerS1 antibody in cytoplasm (cyto)—versus mitochondria (mito)-enriched cellular fractions of UM-SCC-47 cells. Actin and Tom 20 were used as controls for cytoplasm- and mitochondria-enriched fractions, respectively. […] (F-G) Effects of shRNA-mediated knockdown of CerS6, confirmed by Western blotting (F), on UM-SCC-47 cell death in response to cisplatin were measured by trypan blue exclusion assay (G). […]

LC3B = LC3B lipidation by Western blotting in UM-SCC-47 cell extracts; format: cell-based; details: UM-SCC-47 cells, versus vehicle
Procedure: FIGS. 12A-C. Knockdown of autophagy inducer LC3 inhibits cisplatin-mediated cell death in HPV(+) HNSCC cells. (A) Induction of autophagy in response to cisplatin was assessed by detection of LC3B lipidation using Western blotting in HPV(+) UM-SCC-47 cell extracts with anti-LC3B antibody compared to vehicle (veh) treated controls. Actin was used as a loading control. […] Samples shown are from the same representative blot but not in contiguous lanes. (B-C) Effects of siRNA-mediated knockdown of LC3B on cisplatin-mediated cell death were measured and IC50 concentrations were calculated by MTT assays compared to Scr-siRNA-transfected controls. […] Si-RNA-mediated knockdown of LC3B was confirmed using Western blotting with anti-LC3B antibody compared to Scr-siRNA-transfected controls (C). Actin was used as a loading control.
(§4) Immunoblotting. Cells were lysed in RIPA buffer plus protease inhibitor cocktail on ice for 15 minutes then centrifuged. 30ug of protein from the supernatant were run on Criterion™ TGX™ Precast Gels (Bio-Rad).

Drp1 [4] = target: T1, Drp1 (Homo sapiens, UniProt O00429); experiment: Drp1 recruitment to mitochondria in HPV(−) UM-SCC-22A cells (Western blotting of mitochondria-enriched fractions); format: cell-based; details: 5 uM peptide, 20 uM C18-pyr-cer, 1.5 hours
T1 construct: Western blotting using whole cell (UM-SCC-22A) lysates versus mitochondria-enriched fractions; endogenous in cells; host or cells: UM-SCC-22A
T1 sequence (O00429 whole entry): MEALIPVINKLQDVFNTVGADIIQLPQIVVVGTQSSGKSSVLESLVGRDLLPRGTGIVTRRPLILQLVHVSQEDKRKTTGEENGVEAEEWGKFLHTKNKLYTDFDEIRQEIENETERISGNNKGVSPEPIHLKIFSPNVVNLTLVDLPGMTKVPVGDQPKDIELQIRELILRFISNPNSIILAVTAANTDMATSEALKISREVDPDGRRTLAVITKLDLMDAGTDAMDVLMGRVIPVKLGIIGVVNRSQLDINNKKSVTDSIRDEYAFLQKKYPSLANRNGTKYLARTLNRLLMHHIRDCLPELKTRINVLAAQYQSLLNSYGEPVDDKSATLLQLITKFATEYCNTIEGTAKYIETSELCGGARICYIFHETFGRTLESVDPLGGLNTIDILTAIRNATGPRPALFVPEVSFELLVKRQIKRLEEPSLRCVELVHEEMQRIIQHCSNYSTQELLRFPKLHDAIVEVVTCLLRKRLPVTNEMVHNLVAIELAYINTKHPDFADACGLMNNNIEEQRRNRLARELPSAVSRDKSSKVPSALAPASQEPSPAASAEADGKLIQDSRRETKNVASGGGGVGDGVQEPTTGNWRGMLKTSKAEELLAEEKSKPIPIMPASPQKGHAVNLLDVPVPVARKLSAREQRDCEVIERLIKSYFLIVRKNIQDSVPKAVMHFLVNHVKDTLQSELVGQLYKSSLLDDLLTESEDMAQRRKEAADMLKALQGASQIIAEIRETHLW
Procedure: Images were quantified using FIJI.
as §4
Cell fractionation. Cells were treated with 40 uM cisplatin or vehicle for eight hours, 20 uM C18-pyr-cer or vehicle and/or 5 uM scr-pept or E2F5-pept for 1.5 hours. Mitochondria isolation kit (ThermoFisher Scientific) was used as described by the manufacturer.

[5] = target: T2, retinoblastoma protein (RB) (UniProt P06400 2-928, limits assumed); experiment: PLA with anti-GFP and anti-RB antibodies, UM-SCC-22A cells
T2 construct: whole, on cells; Endogenous intracellular protein, detected with anti-RB antibody; also called pRB
T2 sequence (looked up): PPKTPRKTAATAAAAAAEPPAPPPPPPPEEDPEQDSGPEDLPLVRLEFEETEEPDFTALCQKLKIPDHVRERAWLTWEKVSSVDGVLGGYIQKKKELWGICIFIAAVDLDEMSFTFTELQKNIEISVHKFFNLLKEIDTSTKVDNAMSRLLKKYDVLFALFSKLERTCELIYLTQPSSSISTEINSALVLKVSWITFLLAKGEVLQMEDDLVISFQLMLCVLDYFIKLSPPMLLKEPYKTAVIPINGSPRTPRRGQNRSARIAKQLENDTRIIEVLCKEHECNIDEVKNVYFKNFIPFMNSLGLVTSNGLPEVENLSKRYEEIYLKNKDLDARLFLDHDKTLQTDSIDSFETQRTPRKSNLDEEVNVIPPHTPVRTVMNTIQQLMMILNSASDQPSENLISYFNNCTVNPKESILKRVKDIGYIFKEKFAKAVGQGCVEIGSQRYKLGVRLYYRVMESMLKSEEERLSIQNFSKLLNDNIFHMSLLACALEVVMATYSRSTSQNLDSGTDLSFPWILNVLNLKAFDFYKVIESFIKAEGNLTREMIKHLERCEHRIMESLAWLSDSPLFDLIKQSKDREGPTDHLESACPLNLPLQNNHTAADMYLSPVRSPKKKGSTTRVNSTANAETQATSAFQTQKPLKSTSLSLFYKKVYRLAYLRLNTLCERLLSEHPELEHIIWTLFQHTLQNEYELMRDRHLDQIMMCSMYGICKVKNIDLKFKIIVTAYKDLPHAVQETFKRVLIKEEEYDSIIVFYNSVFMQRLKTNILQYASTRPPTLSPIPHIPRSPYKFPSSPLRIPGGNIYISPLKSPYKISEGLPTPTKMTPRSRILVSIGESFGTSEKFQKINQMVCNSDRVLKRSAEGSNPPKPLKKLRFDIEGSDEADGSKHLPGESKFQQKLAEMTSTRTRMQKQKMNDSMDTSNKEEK
Excerpt: PLA images were quantified using the PLA software as described by the manufacturer. […] Vector-GFP was used as a control (right panel, C).

Q: `N.N.[Cl][Pt][Cl]` [cisplatin] was tested. Which “inhibition of growth of xenografts in response to cisplatin” value [1] did it give?
A: ~75%

Q: What about the “tumor suppression of xenografts” value ([2]; HPV(−) UM-SCC-22A xenografts, cisplatin 3.5 mg/kg for two weeks) of the same molecule?
A: no detectable tumor suppression

Q: And the IC50 (UM-SCC-22A cells)?
A: 28 µM

Q: What about the IC50 (UM-SCC-47 cells; UM-SCC-47 (HPV+) cells, 48 h, read-out: IC50 (concentration that inhibited growth by 50%)) of the same molecule?
A: 8 µM

Q: What about the “reduction of cisplatin-mediated growth inhibition by knockdown of CerS1” value (UM-SCC-47 cells; UM-SCC-47 cells, CerS1 shRNA versus Scr-shRNA, MTT) of the same molecule?
A: ~4 fold

Q: What about the “resistance to cisplatin-mediated growth inhibition upon knockdown of E6 and E7” value (UM-SCC-47 cells; UM-SCC-47 cells, HPV-E6/E7 siRNA versus Scr-siRNA, MTT) of the same molecule?
A: ~8 fold

Q: And the “sensitivity for drug-induced growth inhibition/cell death, UM-SCC-47 compared to UM-SCC-22A cells” value (UM-SCC-47 cells; cells in culture)?
A: ~3 fold

Q: And the “CerS1 and CerS6 mRNA in tumors” value (CerS1-6 mRNA)?
A: induced CerS1 and CerS6 mRNA

Q: What about the “Drp1 oligomerization and/or activation” value (Drp1 [3]) of the same molecule?
A: Drp1 oligomerization and/or activation was observed

Q: What about the “accumulation of CerS1 in mitochondria” value (CerS1) of the same molecule?
A: increased accumulation of CerS1 in mitochondria

Q: And the “LC3B lipidation (marker of autophagy induction)” value (LC3B)?
A: Increased LC3B lipidation

Q: Which results are given for “Biotin-RRRRRRRR-LILFVIKLHQDVNDMRNSNQDQTQSEDRESKWY [scr-pept]”?
A: tumor growth ([2]; UM-SCC-22A xenografts, 3.76 μg peptide, absence/presence of cisplatin 3.5 mg/kg every 3 days for 2 weeks): no effect; ceramide-induced Drp1 recruitment to mitochondria (Drp1 [4]): not

B1: dimerization domain deleted mutant of E2F5, GFP-tagged (E2F5^Δ84-177-GFP) (other)
chain: MAAAEPASSGQQAPAGQGQGQRPPPQPPQAQAPQPPPPPQLGGAGGGSSRHEKSLGLLTTKFVSLLQEAKDGVLDLKAAADTLICNCFNGDTLLAIQAPSGTQLEVPIPEMGQNGQKKYQINLKSHSGPIHVLLINKESSSSKPVVFPVPPPDDLTQPSSQSLTPVTPQKSSMATQNLPEQHVSERSQALQQTSATDISSAGSISGDIIDELMSSDVFPLLRLSPTPADDYNFNLDDNEGVCDLFDVQILNY
notes: Ectopically expressed in cells; not shown: GFP tag
Q: Does B1 bind [5]?
A: binds
